Data reported in US20080261201A1, “Methods and compounds to alter virus infection” (priority 2006, published 2008).
Where two headings read alike, the source gives them in different places.

Columns and labels:
[1] = tested on: AAV2; test: AAV2 (AV2Luc) transduction of HeLa cells, luciferase activity; type: cell-based; conditions: for inhibition of AAV2 transduction: DPI 10 μM
Experimental: Recombinant type-2 adeno-associated viruses encoding luciferase (AV2Luc) or factor VIII (AV2FVIII) transgenes were used for infection of different cell types. HeLa and IB3 cells were cultured in DMEM supplemented with 10% fetal bovine serum (FBS) and antibiotics. Nox 1 and Nox2 knockout and wild-type (wt) littermate control mouse dermal fibroblasts were generated from newborn mice as described in Bosu et al. (2001) and below. For all infections, viruses were applied to cells in serum-free DMEM, and an equal volume of 20% FBS/DMEM was added at 2 hours post-infection.
In studies evaluating viral entry, cells were incubated with 1,000 particles/cell of AV2FVIII at 4° C. for 30 minutes prior to removing virus, washing cells, and shifting cells to 37° C. Cells were then incubated for the indicated times and postnuclear supernatants (PNS) were prepared for analysis of intracellular AAV2. Taqman PCR was used to quantify the abundance of viral genomes in different subcellular fractions following infection using primer sets and methods described in Ding et al. (2006). When proteasome inhibitors were added to induce AAV2 transduction, LLnL (Boston Biochem, Cambridge, Mass.) and/or doxorubicin (Calbiochem, San Diego, Calif.), were present in the medium at concentrations of 40 μM and 5 μM, respectively. Modulation of endosomal ROS was achieved by adding 1 mg/mL of purified bovine Cu/Zn superoxide dismutase (Cu/ZnSOD) (Oxis Research, Portland, Oreg.) and/or catalase (Sigma-Aldrich, St. Louis, Mo.) to the medium which was then applied to cells 20 minutes prior to viral infections unless indicated otherwise. SOD and/or catalase remained in the medium during infection unless otherwise indicated.

[2] = tested on: AAV2; conditions: Sanlioglu et al., 2004; 1999; cited from earlier work
[3] = HeLa cells, antimycin A 10 μM, L-NMMA 5 mM, rotenone 2 nM, 16 hours post-infection

Compound: antimycin A
- effect on AAV2 transduction [1, 3]: did not significantly affect

Compound: c1ccc2c(c1)[I+]c1ccccc1-2 [DPI]
- inhibition of AAV2 transduction ([1]; HeLa cells, absence of proteasome inhibitors, 16 hours post-infection): 100 fold
- inhibition of AAV2 transduction ([1]; HeLa cells, presence of proteasome inhibitors, 16 hours post-infection): 1000 fold

Compound: CC(=O)O.CNC(=N)NCCC[C@H](N)C(=O)O [L-NMMA, N^G-monomethyl-L-arginine acetate]
- effect on AAV2 transduction [1, 3]: did not significantly affect

Compound: C=C(C)[C@H]1Cc2c(ccc3c2O[C@@H]2COc4cc(OC)c(OC)cc4[C@@H]2C3=O)O1 [rotenone]
- effect on AAV2 transduction [1, 3]: did not significantly affect

Compound: CC(=O)N[C@@H](CS)C(=O)O [NAC, N-acetyl-L-cysteine]
- effect on AAV2 transduction [2]: inhibit transduction

Compound: SOD1: purified bovine Cu/Zn superoxide dismutase (Oxis Research)
- effect on AAV2 transduction ([1]; endosomal loading with purified SOD1, absence or presence of proteasome inhibitors): failed to alter
